The values that follow come from patent US11339167B2, “Substituted piperidines as kinase inhibitors” (Daewoong Pharmaceutical Co., Ltd., priority 2017, dated 2022).

Like-named read-outs stand apart in the source and are kept apart here.

For one test, the target named is human JAK3 (Homo sapiens (Human), UniProt P52333). Kind of test: JAK3 kinase inhibitory activity, ADP Glo kinase assay. The class given is biochemical. To be noted: recombinant purified human JAK3, ATP 5 uM, Poly(Glu4,Tyr1) peptide, 1 hour 30° C. How it is done:
JAK3 and BTK kinases inhibitory activities were measured for the compounds prepared in the Examples through in vitro analysis on the ADP Glow (Glo) platform.
Specifically, the inhibitory activities against JAK3 and BTK kinase were measured using a JAK3 kinase assay kit (Promega, V9441) and a BTK kinase assay kit (Promega, V9071) which were purchased from Promega. […] After incubation (30° C.) for 1 hour, equivalent volume (25 uL per reaction) of ADP Glo was added and incubated (30° C.) for 40 minutes at room temperature. Then, a kinase detection reagent (50 uL per reaction) was added and incubated (30° C.) for 30 minutes at room temperature. The kinase activity was measured by chemiluminescence according to the instructions of ADP Glow kinase assay kit, and the inhibitory activity of the compounds according to the present disclosure was calculated.
A general note: ADP-Glo turns the ADP formed in a reaction into a luminescent signal.

A further test has as its target JAK3 kinase (Mus musculus (Mouse), UniProt Q62137). Kind of test: JAK3-mediated cell assay (HT-2/IL-2 assay), STAT5 phosphorylation HTRF. It counts as cell-based. To be noted: STAT5 phosphorylation induced by IL-2 (20 ng/ml, 10 minutes) in HT-2 cells, compound treatment 30 minutes. How it is done: The inhibitory activities against JAK3 kinase at the cellular level were measured for the compounds prepared in the Examples through in vitro analysis of STAT5 phosphorylation induced by IL-2 stimulation in HT-2 cells. Specifically, STAT5 phosphorylation was analyzed using HTRF® phospho-STAT5 (Tyr694) assay kit (Cisbio, 64AT5PEG), which was purchased from Cisbio. HT-2 cells were cultured for 2 hours in growth factor-free medium. The cultured HT-2 cells were dispensed into 96-well plates by 50 ul so as to be a density of 2.5×10^5 cells/well. The compounds prepared in the previous Examples were prepared so as to be finally a 0.3% DMSO aqueous solution, and HT-2 cells was treated with the compounds for 30 minutes. After the compound treatment, IL-2 was prepared so as to be finally a concentration of 20 ng/ml, and HT-2 cells was treated for 10 minutes. The cells were then disrupted by treating lysis buffers for 30 minutes. The level of STAT5 phosphorylation was measured according to the instructions of HTRF® phospho-STAT5 assay kit, and the inhibitory activity of the compounds according to the invention was calculated. For the analysis of the results of each compound, Microsoft Excel was used, and IC50 values were calculated by SigmaPlot software.
(TR-FRET usually uses a lanthanide donor and a delayed reading to cut background.)

The target in the next test is human BTK (Homo sapiens (Human), UniProt Q06187). Briefly: BTK kinase inhibitory activity, ADP Glo kinase assay.
[1] abbreviates: read-out: BTK IC50, recombinant purified human BTK, ATP 10 uM, Poly(Glu4,Tyr1) peptide, 1 hour 30° C.

Sequence of human BTK (Q06187 whole entry): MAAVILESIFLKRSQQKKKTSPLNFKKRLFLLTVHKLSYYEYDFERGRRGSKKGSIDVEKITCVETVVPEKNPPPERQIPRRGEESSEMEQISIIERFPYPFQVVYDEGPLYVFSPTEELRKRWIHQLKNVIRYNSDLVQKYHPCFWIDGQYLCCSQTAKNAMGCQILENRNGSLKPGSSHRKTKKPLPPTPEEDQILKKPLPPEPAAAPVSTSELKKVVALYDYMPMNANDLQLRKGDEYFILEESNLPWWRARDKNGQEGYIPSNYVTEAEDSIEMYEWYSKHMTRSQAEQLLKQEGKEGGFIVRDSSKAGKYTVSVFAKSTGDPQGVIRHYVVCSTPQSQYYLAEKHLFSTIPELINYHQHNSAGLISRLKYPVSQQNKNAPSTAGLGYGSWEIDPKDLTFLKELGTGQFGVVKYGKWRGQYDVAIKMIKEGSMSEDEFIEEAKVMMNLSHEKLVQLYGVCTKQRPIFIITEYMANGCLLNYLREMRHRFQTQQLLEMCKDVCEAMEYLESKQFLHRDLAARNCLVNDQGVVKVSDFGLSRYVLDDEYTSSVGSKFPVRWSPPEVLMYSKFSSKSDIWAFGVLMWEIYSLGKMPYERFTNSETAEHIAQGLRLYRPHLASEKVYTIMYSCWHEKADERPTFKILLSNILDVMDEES
Sequence of JAK3 kinase (Q62137 whole entry): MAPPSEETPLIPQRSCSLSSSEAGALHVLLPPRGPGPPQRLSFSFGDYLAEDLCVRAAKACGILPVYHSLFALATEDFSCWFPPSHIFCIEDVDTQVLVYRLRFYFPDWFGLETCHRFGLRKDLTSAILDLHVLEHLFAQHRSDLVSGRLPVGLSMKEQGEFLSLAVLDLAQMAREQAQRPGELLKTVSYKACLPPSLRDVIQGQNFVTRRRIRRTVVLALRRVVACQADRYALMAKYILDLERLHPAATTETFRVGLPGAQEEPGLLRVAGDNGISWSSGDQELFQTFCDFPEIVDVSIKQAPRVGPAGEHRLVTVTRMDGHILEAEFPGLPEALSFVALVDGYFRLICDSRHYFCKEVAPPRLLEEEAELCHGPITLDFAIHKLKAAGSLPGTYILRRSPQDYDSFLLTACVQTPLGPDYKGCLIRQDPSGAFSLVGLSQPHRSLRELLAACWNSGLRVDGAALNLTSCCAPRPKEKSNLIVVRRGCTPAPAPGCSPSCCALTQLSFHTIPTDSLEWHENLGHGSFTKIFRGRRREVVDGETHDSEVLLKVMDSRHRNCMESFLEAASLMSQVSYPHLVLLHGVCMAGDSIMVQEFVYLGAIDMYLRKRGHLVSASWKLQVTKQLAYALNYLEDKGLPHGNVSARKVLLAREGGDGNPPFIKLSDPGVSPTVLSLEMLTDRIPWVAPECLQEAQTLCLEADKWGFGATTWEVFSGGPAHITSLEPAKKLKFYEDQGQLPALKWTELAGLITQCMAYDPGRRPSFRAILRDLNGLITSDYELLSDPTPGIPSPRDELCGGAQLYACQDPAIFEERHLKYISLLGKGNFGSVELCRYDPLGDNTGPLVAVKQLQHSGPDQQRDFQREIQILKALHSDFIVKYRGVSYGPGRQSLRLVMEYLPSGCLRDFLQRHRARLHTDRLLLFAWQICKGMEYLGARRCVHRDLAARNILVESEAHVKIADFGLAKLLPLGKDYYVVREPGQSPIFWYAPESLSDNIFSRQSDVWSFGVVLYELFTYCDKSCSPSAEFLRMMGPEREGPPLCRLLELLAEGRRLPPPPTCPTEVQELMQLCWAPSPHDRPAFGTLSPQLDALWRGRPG
Sequence of human JAK3 (P52333 whole entry): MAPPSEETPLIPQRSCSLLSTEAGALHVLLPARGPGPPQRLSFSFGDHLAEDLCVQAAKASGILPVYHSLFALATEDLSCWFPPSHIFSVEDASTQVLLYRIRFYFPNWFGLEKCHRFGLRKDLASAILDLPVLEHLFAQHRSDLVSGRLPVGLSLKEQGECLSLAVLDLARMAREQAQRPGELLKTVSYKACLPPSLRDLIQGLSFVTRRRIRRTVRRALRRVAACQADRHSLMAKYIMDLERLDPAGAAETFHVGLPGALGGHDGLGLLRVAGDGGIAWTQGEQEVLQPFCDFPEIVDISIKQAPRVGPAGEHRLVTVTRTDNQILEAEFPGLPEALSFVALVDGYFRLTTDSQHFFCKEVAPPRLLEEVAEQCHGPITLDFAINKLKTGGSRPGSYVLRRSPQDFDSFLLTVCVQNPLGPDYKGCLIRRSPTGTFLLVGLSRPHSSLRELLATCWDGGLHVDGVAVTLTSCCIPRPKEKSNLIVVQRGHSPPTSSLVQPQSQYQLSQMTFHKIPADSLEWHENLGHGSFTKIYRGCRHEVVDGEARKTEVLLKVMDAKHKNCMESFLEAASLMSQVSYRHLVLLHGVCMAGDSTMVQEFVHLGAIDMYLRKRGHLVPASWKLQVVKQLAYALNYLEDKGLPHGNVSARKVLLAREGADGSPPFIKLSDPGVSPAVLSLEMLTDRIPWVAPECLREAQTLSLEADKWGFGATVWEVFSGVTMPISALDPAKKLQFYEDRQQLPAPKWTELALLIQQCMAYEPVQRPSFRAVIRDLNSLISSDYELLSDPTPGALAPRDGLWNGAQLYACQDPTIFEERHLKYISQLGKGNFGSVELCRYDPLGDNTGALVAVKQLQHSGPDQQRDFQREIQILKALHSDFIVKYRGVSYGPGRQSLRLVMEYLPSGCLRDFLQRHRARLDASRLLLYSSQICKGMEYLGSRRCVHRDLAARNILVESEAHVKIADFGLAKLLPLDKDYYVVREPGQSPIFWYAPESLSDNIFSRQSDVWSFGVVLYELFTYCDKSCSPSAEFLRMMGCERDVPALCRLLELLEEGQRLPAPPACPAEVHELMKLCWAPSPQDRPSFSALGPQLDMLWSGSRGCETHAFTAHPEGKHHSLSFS

As a reminder, the IC50 is the concentration at which inhibition is half-maximal. As to `C=CC(=O)N1CC[C@@H](F)[C@H](Oc2nc(Nc3cc(C)ns3)nc3[nH]cc(Cl)c23)C1` (racemic) [Example 11, 1-(trans-3-((5-chloro-2-((3-methylisothiazol-5-yl)amino)-7H-pyrrolo[2,3-d]pyrimidin-4-yl)oxy)-4-fluoropiperidin-1-yl)prop-2-en-1-one], the concentration for half-maximal inhibition (IC50) on human JAK3 stood at 0.3 nM; at JAK3 kinase, 96 nM; on human BTK it was 2.5 nM.

Take `C=CC(=O)N1CC[C@H](F)[C@H](Oc2nc(Nc3cnn(CC)c3)nc3[nH]ccc23)C1` (racemic) [Example 4, 1-(cis-3-((2-((1-ethyl-1H-pyrazol-4-yl)amino)-7H-pyrrolo[2,3-d]pyrimidin-4-yl)oxy)-4-fluoropiperidin-1-yl)prop-2-en-1-one]: the IC50 worked out at 0.4 nM at human JAK3, 115 nM on JAK3 kinase and 4.2 nM against human BTK.

`C=CC(=O)N1CC[C@@H](F)[C@H](Oc2nc(Nc3cnn(CC)c3)nc3[nH]ccc23)C1` (racemic) [Example 1, 1-(trans-3-((2-((1-ethyl-1H-pyrazol-4-yl)amino)-7H-pyrrolo[2,3-d]pyrimidin-4-yl)oxy)-4-fluoropiperidin-1-yl)prop-2-en-1-one]: the IC50 worked out at 0.3 nM at human JAK3, 67.4 nM at JAK3 kinase and 2.4 nM against human BTK.

As to `C=CC(=O)N1CC[C@@H](F)[C@H](Oc2nc(Nc3cnn(CC)c3)nc3[nH]cc(Cl)c23)C1` (racemic) [Example 9, 1-(trans-3-((5-chloro-2-((1-ethyl-1H-pyrazol-4-yl)amino)-7H-pyrrolo[2,3-d]pyrimidin-4-yl)oxy)-4-fluoropiperidin-1-yl)prop-2-en-1-one], the IC50 amounted to 0.3 nM on human JAK3, 72.3 nM against JAK3 kinase and 2.1 nM against human BTK.

For the compound `C=CC(=O)N1CC[C@@H](F)[C@@H](Oc2nc(Nc3cnn(CC)c3)nc3[nH]ccc23)C1` [Example 5, 1-((3S,4R)-3-((2-((1-ethyl-1H-pyrazol-4-yl)amino)-7H-pyrrolo[2,3-d]pyrimidin-4-yl)oxy)-4-fluoropiperidin-1-yl)prop-2-en-1-one], the IC50 is 0.2 nM at human JAK3, 101 nM against JAK3 kinase and 1.5 nM on human BTK (setting [1]).

Regarding `C=CC(=O)N1CC[C@H](F)[C@H](Oc2nc(Nc3ccc4ncsc4c3)nc3[nH]ccc23)C1` [Example 34, 1-((3R,4S)-3-((2-(benzo[d]thiazol-6-ylamino)-7H-pyrrolo[2,3-d]pyrimidin-4-yl)oxy)-4-fluoropiperidin-1-yl)prop-2-en-1-one], the IC50 at human JAK3 is above 80 nM; on human BTK (setting [1]), above 400 nM.

On to `C=CC(=O)N1CC[C@H](F)[C@@H](Oc2nc(Nc3cnn(CC)c3)nc3[nH]ccc23)C1` [Example 25, 1-((3S,4S)-3-((2-((1-ethyl-1H-pyrazol-4-yl)amino)-7H-pyrrolo[2,3-d]pyrimidin-4-yl)oxy)-4-fluoropiperidin-1-yl)prop-2-en-1-one], for which the IC50 was 0.2 nM at human JAK3, 32.3 nM at JAK3 kinase and 1.2 nM on human BTK (setting [1]).

In the case of `C=CC(=O)N1CC[C@@H](F)[C@H](Oc2nc(Nc3cnn(CC)c3)nc3[nH]cc(C#N)c23)C1` (racemic) [Example 12, 4-((trans-1-acryloyl-4-fluoropiperidin-3-yl)oxy)-2-((1-ethyl-1H-pyrazol-4-yl)amino)-7H-pyrrolo[2,3-d]pyrimidine-5-carbonitrile], the IC50 at human JAK3 came to 0.2 nM; against human BTK it was 1.3 nM.
